# Laboratory results from publication PMC8264935 (ACS Omega, 2021).
# Tested on: CbTA (ω-transaminase from Chloroflexi bacterium)
# Experiment: HPLC initial rate, Michaelis-Menten nonlinear fit
# Format: biochemical, Chloroflexota bacterium
# Settings: 0.02 mM PLP, glycine-NaOH pH 8.5, 45 °C
SMILES,Km (20 mM pyruvate co-substrate),Km (20 mM (R)-MBA co-substrate)
C[C@@H](N)c1ccccc1 [(R)-MBA],14.7 mM,–
"CC(=O)C(=O)O [C1, pyruvate]",–,2.83 mM
